Patent US12662465B2, “EGFR inhibitors” (Blueprint Medicines Corporation, priority 2021, dated 2026)
Where two headings read alike, the source gives them in different places.

Assays:
EGFR (d746-750) = target: T1, EGFR (d746-750) (Homo sapiens, UniProt P00533, DEL746-750); assay: Biochemical EGFR inhibition assay (Caliper mobility shift), EGFR (d746-750); settings: read-out: Enz EGFR_Exon19-del746-750 IC50
T1 construct: purchased SignalChem E10-122JG

EGFR L858R = target: T2, EGFR L858R (Homo sapiens, UniProt P00533, L858R); assay: Biochemical EGFR inhibition assay (Caliper mobility shift), EGFR L858R; settings: read-out: Enz EGFR_L858R IC50
T2 construct: purchased SignalChem E10-122BG
T2 sequence (P00533 25-1210 L858R): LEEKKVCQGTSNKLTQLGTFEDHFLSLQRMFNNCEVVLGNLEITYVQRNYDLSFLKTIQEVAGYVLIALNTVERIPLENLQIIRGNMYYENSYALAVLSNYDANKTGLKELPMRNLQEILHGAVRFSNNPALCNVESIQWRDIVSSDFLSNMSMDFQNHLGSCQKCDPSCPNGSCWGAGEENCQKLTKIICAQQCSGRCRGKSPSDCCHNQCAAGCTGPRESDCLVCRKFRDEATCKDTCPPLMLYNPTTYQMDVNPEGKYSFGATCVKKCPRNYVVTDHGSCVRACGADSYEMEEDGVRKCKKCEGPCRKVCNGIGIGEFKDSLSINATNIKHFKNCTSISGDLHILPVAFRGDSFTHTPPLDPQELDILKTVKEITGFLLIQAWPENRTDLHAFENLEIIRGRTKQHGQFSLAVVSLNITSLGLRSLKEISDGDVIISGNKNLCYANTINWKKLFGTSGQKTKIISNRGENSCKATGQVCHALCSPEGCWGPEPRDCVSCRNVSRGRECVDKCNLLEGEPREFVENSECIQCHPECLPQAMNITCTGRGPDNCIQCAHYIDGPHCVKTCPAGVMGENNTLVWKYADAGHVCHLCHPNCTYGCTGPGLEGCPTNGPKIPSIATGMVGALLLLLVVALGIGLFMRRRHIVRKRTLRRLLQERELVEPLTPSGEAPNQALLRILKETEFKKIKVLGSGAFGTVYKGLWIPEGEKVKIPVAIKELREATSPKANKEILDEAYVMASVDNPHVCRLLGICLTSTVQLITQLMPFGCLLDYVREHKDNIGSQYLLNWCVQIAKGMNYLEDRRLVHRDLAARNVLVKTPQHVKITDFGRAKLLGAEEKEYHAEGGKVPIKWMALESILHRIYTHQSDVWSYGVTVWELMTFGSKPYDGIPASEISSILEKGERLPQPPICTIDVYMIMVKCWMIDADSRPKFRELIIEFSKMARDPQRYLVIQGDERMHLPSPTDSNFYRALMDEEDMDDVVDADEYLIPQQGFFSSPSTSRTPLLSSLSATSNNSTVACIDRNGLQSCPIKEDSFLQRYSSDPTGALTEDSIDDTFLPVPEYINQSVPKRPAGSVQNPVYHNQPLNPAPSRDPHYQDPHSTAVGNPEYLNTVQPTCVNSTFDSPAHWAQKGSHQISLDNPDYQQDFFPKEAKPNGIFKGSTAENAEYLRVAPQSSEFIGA

[1] = target: intracellular phosphorylation of EGFR (Tyr1068) in PC-9 cells (Ex19Del) (Homo sapiens, UniProt P00533, DEL746-750); assay: PC-9 pEGFR AlphaLISA assay; format: cell-based; settings: 4 hours compound incubation, read-out: Ext pEGFR_PC-9 Ex19Del IC50
Sequence of intracellular phosphorylation of EGFR (Tyr1068) in PC-9 cells (Ex19Del) (P00533 with tags, fused parts or gaps DEL746-750): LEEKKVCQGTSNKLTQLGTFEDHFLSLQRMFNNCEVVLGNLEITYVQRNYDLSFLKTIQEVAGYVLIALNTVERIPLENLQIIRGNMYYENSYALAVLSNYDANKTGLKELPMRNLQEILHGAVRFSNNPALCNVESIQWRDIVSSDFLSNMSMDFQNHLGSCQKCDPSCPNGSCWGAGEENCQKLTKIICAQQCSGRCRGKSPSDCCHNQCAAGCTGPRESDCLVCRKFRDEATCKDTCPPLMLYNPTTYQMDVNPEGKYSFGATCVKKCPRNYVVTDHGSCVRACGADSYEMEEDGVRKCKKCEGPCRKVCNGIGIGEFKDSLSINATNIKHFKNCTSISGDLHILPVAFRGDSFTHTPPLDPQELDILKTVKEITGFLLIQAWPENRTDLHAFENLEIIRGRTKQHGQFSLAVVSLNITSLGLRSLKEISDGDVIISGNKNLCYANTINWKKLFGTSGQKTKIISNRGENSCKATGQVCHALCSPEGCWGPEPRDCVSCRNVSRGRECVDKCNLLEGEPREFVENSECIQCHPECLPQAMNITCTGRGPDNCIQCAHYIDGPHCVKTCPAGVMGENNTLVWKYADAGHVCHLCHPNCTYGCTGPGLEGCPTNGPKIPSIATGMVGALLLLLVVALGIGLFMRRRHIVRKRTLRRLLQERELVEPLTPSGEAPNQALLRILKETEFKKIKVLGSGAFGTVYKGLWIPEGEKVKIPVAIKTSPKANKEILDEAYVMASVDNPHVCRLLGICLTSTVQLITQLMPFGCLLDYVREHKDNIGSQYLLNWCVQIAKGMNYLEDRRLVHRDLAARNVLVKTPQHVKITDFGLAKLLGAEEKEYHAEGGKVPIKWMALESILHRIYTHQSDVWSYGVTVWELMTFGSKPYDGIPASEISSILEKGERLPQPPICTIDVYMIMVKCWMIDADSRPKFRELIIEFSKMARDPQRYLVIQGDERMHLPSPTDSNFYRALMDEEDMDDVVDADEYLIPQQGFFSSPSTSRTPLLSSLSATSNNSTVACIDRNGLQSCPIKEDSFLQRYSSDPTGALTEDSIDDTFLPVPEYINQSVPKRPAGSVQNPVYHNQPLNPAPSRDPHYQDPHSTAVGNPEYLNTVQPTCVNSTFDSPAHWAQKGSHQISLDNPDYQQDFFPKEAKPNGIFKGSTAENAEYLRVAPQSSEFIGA

[2] = 1.0 mM ATP or ATP Km, room temperature (25° C.)

T1 sequence (P00533 with tags, fused parts or gaps DEL746-750 limits assumed): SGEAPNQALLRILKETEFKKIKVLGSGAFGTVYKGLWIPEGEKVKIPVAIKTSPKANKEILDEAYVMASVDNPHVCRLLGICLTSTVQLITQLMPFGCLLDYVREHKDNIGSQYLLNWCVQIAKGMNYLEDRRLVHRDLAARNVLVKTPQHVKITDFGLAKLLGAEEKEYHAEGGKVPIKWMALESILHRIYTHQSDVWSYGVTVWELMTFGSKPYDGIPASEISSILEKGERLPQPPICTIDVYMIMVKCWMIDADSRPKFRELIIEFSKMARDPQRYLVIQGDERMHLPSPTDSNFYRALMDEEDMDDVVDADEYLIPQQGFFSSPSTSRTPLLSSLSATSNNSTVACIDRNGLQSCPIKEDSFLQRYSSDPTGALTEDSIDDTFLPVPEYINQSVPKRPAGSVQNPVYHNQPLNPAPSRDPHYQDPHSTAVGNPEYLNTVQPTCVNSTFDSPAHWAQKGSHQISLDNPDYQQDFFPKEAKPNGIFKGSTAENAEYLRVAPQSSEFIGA

IC50 (EGFR (d746-750)) [nM]	IC50 (EGFR L858R) [nM]	IC50 [1] [nM]	IC50 (EGFR (d746-750); [2]) [nM]	IC50 (EGFR L858R; [2]) [nM]	SMILES
< 10	< 10	≤ 10	–	–	CC(CN(C)C)Oc1cc(-c2cnn(C)c2)cc2ncnc(Nc3ccc4ncccc4c3)c12 (racemic) [Example 42, (R)-5-((1-(dimethylamino)propan-2-yl)oxy)-7-(1-methyl-1H-pyrazol-4-yl)-N-(quinolin-6-yl)quinazolin-4-amine and (S)-5-((1-(dimethylamino)propan-2-yl)oxy)-7-(1-methyl-1H-pyrazol-4-yl)-N-(quinolin-6-yl)quinazolin-4-amine]
< 10	10.1 to 50	≤ 10	–	–	CC(CN(C)C)Oc1cc(N2CC3CC(C2)O3)cc2ncnc(Nc3ccc4ncccc4c3)c12 (racemic) [Example 66, 7-(6-oxa-3-azabicyclo[3.1.1]heptan-3-yl)-5-(((R)-1-(dimethylamino)propan-2-yl)oxy)-N-(quinolin-6-yl)quinazolin-4-amine and 7-(6-oxa-3-azabicyclo[3.1.1]heptan-3-yl)-5-(((S)-1-(dimethylamino)propan-2-yl)oxy)-N-(quinolin-6-yl)quinazolin-4-amine]
< 10	< 10	≤ 10	–	–	COC1CCN(c2cc(O[C@H](C)C3COC3)c3c(Nc4ccc5ncccc5c4F)ncnc3c2)C1 (mixture of isomers) [Example 84, N-(5-fluoroquinolin-6-yl)-7-((R)-3-methoxypyrrolidin-1-yl)-5-((R)-1-(oxetan-3-yl)ethoxy)quinazolin-4-amine and N-(5-fluoroquinolin-6-yl)-7-((S)-3-methoxypyrrolidin-1-yl)-5-((R)-1-(oxetan-3-yl)ethoxy)quinazolin-4-amine]
< 10	< 10	≤ 10	–	–	COC1CCN(c2cc(O[C@H](C)CN(C)C)c3c(Nc4ccc5ncccc5c4F)ncnc3c2)C1 (mixture of isomers) [Example 86, 5—(((R)-1-(dimethylamino)propan-2-yl)oxy)-N-(5-fluoroquinolin-6-yl)-7-((R)-3-methoxypyrrolidin-1-yl)quinazolin-4-amine and 5-(((R)-1-(dimethylamino)propan-2-yl)oxy)-N-(5-fluoroquinolin-6-yl)-7-((S)-3-methoxypyrrolidin-1-yl)quinazolin-4-amine]
< 10	10.1 to 50	≤ 10	–	–	C[C@H](CN(C)C)Oc1cc(N2CCOC(C(F)F)C2)cc2ncnc(Nc3ccc4ncccc4c3F)c12 (mixture of isomers) [Example 98, 7—((S)-2-(difluoromethyl)morpholino)-5-(((R)-1-(dimethylamino)propan-2-yl)oxy)-N-(5-fluoroquinolin-6-yl) and 7-((R)-2-(difluoromethyl)morpholino)-5-(((R)-1-(dimethylamino)propan-2-yl)oxy)-N-(5-fluoroquinolin-6-yl)quinazolin-4-amine]
< 10	< 10	≤ 10	–	–	CC(CO)n1cc(-c2cc(O[C@H](C)C3COC3)c3c(Nc4ccc5ncccc5c4F)ncnc3c2)cn1 (mixture of isomers) [Example 119, (R)-2-(4-(4-((5-fluoroquinolin-6-yl)amino)-5-((R)-1-(oxetan-3-yl)ethoxy)quinazolin-7-yl)-1H-pyrazol-1-yl)propan-1-ol and (S)-2-(4-(4-((5-fluoroquinolin-6-yl)amino)-5-((R)-1-(oxetan-3-yl)ethoxy)quinazolin-7-yl)-1H-pyrazol-1-yl)propan-1-ol]
–	–	≤ 10	< 10	< 10	C[C@H](Oc1cc(-c2cnn(C)c2)cc2ncnc(Nc3ccc4ncccc4c3F)c12)C1COC1 (single isomer, unassigned) [Example 2, (S)—N-(5-fluoroquinolin-6-yl)-7-(1-methyl-1H-pyrazol-4-yl)-5-(1-(oxetan-3-yl)ethoxy)quinazolin-4-amine or (R)—N-(5-fluoroquinolin-6-yl)-7-(1-methyl-1H-pyrazol-4-yl)-5-(1-(oxetan-3-yl)ethoxy)quinazolin-4-amine]
–	–	> 50.1	10.1 to 50	10.1 to 50	C[C@@H](CN(C)C)Oc1cc(-c2cnn(C)c2)cc2ncnc(Nc3ccc4ncccc4c3F)c12 (single isomer, unassigned) [Example 4, (S)-5-((1-(dimethylamino)propan-2-yl)oxy)-N-(5-fluoroquinolin-6-yl)-7-(1-methyl-1H-pyrazol-4-yl)quinazolin-4-amine or (R)-5-((1-(dimethylamino)propan-2-yl)oxy)-N-(5-fluoroquinolin-6-yl)-7-(1-methyl-1H-pyrazol-4-yl)quinazolin-4-amine]
–	–	≤ 10	< 10	< 10	C[C@H](CN(C)C)Oc1cc(-c2cnn(C)c2)cc2ncnc(Nc3ccc4ncccc4c3F)c12 (single isomer, unassigned) [Example 5, (R)-5-((1-(dimethylamino)propan-2-yl)oxy)-N-(5-fluoroquinolin-6-yl)-7-(1-methyl-1H-pyrazol-4-yl)quinazolin-4-amine or (S)-5-((1-(dimethylamino)propan-2-yl)oxy)-N-(5-fluoroquinolin-6-yl)-7-(1-methyl-1H-pyrazol-4-yl)quinazolin-4-amine]
–	–	≤ 10	< 10	< 10	Cn1cc(-c2cc(O[C@@H]3CC[C@@H]3O)c3c(Nc4ccc5ncccc5c4F)ncnc3c2)cn1 (single isomer, unassigned) [Example 16, (1S,2R)-2-((4-((5-fluoroquinolin-6-yl)amino)-7-(1-methyl-1H-pyrazol-4-yl)quinazolin-5-yl)oxy)cyclobutan-1-ol or (1R,2S)-2-((4-((5-fluoroquinolin-6-yl)amino)-7-(1-methyl-1H-pyrazol-4-yl)quinazolin-5-yl)oxy)cyclobutan-1-ol]
–	–	≤ 10	< 10	< 10	CC[C@H](Oc1cc(-c2cnn(C)c2)cc2ncnc(Nc3ccc4ncccc4c3F)c12)C1COC1 (single isomer, unassigned) [Example 23, (S)—N-(5-fluoroquinolin-6-yl)-7-(1-methyl-1H-pyrazol-4-yl)-5-(1-(oxetan-3-yl)propoxy)quinazolin-4-amine or ((R)—N-(5-fluoroquinolin-6-yl)-7-(1-methyl-1H-pyrazol-4-yl)-5-(1-(oxetan-3-yl)propoxy)quinazolin-4-amine]
–	–	≤ 10	< 10	< 10	C[C@H](O)[C@H](C)Oc1cc(-c2cnn(C)c2)cc2ncnc(Nc3ccc4ncccc4c3F)c12 (single isomer, unassigned) [Example 30, (2S,3S)-3-((4-((5-fluoroquinolin-6-yl)amino)-7-(1-methyl-1H-pyrazol-4-yl)quinazolin-5-yl)oxy)butan-2-ol or (2R,3R)-3-((4-((5-fluoroquinolin-6-yl)amino)-7-(1-methyl-1H-pyrazol-4-yl)quinazolin-5-yl)oxy)butan-2-ol]

SMILES	IC50 (EGFR (d746-750)) [nM]	IC50 (EGFR L858R) [nM]	IC50 [1] [nM]	IC50 (EGFR (d746-750); [2]) [nM]	IC50 (EGFR L858R; [2]) [nM]
C[C@@H](Oc1cc(-c2cnn(C)c2)cc2ncnc(Nc3ccc4ncccc4c3F)c12)C1COC1 (single isomer, unassigned) [Example 1, (R)—N-(5-fluoroquinolin-6-yl)-7-(1-methyl-1H-pyrazol-4-yl)-5-(1-(oxetan-3-yl)ethoxy)quinazolin-4-amine or (S)—N-(5-fluoroquinolin-6-yl)-7-(1-methyl-1H-pyrazol-4-yl)-5-(1-(oxetan-3-yl)ethoxy)quinazolin-4-amine]	–	–	≤ 10	< 10	< 10
